Results as given in patent US9199962B2, “Substituted azaheterocycles for the treatment of cancer” (Merck Patent GmbH, priority 2011, dated 2015).
Like-named read-outs stand apart in the source and are kept apart here.

Assays:
[1] = target: T1, focal adhesion kinase (FAK) autophosphorylation at tyrosine 397 in HT29 cells (Homo sapiens, UniProt Q05397); assay: Cellular testing of FAK inhibitors: FAK autophosphorylation at tyrosine 397 in HT29 cells (Luminex-based assay); type: cell-based; conditions: Table 2, phospho-Y397-FAK, 30 min serum-free, read-out: HT-29 IC50
T1 construct: endogenous in cells; host or cells: HT29
T1 sequence (Q05397 whole entry): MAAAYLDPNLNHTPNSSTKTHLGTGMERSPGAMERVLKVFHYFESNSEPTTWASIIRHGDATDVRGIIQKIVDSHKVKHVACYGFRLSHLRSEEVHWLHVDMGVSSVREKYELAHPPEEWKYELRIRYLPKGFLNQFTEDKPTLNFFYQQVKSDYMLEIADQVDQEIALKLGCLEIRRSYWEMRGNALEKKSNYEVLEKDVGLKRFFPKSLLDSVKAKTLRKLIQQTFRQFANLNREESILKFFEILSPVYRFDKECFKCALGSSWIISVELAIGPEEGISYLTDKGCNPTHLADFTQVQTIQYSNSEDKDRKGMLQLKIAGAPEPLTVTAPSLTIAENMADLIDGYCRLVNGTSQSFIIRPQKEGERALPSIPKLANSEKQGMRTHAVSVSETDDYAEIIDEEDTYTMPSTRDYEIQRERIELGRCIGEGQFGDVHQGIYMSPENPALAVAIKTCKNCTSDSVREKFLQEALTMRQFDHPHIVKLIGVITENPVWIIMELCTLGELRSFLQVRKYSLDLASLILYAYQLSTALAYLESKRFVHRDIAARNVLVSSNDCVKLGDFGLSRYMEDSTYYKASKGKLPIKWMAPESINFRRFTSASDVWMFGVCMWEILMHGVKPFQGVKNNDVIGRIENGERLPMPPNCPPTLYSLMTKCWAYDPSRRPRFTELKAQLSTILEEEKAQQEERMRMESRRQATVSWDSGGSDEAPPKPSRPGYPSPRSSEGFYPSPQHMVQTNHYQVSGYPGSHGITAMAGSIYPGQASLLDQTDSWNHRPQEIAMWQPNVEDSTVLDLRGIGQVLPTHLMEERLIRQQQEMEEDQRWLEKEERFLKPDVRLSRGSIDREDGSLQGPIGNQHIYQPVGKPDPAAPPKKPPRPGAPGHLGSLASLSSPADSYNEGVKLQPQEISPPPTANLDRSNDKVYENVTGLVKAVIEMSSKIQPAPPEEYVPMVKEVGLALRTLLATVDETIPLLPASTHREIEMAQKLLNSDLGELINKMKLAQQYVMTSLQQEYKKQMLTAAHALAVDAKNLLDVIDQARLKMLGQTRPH
Experimental: 2. Assay Principle for Celluar Testing of FAK Inhibitors
Cellular activity of focal adhesion kinase (FAK) is determined by the degree of FAK autophosphorylation at tyrosine 397 using a Luminex-based assay. HT29 cells are plated with 30,000 cells per well of a 96-well plate in 100 μl medium (90% DMEM/10% FCS). At the following day, test compounds are added in a serial dilution under serum-free conditions for 30 min. Then, cells were lysed with 90 μl lysis buffer (20 mM Tris/HCl pH 8.0, 150 mM NaCl, 1% NP40, 10% Glycerol, 1% Phosphatase-Inhibitor II, 20 mM […]-Glycerolphosphat, 0.1% Protease-Inhibitor Cocktail III, 0.01% Benzonase) and lysates were cleared by centrifugation through a 96-well filter plate (0.65 μm). Samples were incubated with Luminex-beads which were coupled with an anti-total FAK antibody overnight at 4° C. with under gentle agitation. For detection of phospho-Y397-FAK a phosphospecific antibody and a species specific PE-labeled secondary antibody are added. The amount of phospho-Y397-FAK is determined in a Luminex100 machine measuring 100 events per well within 60 seconds.
Counts from samples treated with a FAK reference inhibitor are subtracted as pharmacological blank. Counts from samples treated with test compounds are calculated as percent of control from solvent treated (0.3% DMSO) samples. IC50 values were determined using AssayExplorer software.

[2] = target: T2, GST-FAK (N-terminal GST fusion with truncated human FAK (376-1052 (end) amino acids)) (Homo sapiens, UniProt Q05397); assay: Biochemical enzyme assay for FAK activity (Caliper LC3000 mobility shift); conditions: 100 uM ATP, read-out: FAK IC50
T2 construct: truncated human FAK (376-1052 (end) amino acids)
T2 sequence (Q05397 376-1052): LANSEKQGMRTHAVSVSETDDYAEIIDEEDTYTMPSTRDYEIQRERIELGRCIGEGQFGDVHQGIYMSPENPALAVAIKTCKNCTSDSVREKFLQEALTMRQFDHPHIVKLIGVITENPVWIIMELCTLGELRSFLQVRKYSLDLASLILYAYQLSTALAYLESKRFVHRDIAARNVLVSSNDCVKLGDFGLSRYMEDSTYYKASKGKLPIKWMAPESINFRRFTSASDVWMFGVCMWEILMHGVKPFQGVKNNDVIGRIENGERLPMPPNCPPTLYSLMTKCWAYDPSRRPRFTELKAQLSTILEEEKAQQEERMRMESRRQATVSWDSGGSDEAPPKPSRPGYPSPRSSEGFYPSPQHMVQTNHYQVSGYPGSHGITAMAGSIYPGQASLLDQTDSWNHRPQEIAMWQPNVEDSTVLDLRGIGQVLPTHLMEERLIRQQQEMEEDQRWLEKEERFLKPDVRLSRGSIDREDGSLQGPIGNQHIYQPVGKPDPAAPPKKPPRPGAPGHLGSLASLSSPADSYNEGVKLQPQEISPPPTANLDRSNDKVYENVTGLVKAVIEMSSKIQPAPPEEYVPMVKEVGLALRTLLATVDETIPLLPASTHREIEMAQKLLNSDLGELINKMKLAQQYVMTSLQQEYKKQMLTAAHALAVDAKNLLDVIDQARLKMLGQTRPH
In short: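 Inhibitor dose series in DMSO were incubated 90 min at 25 °C with truncated GST-tagged human FAK (0.067 ng/µl) and FITC-labelled peptide substrate (1 µM), with ATP at 100 µM and FERM peptide at 1 mM (pH 7.5 HEPES). After EDTA quench, phosphorylated and unphosphorylated peptides were resolved electrophoretically. Percent conversion was fitted for IC50.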

IC50 [1] [µM] | IC50 ([2]; Table 2) [µM] | IC50 ([2]; Table 5) [µM] | Compound
0.1 to 1 | < 0.1 | – | NC(=O)CCNC(=O)c1cc(NCc2ccc(F)cc2F)nc(-c2cncc(C(F)(F)F)c2)n1 [Compound 41, 6-(2,4-Difluoro-benzylamino)-2-(5-trifluoromethyl-pyridin-3-yl)-pyrimidine-4-carboxylic acid (2-carbamoyl-ethyl)-amide]
1 to 10 | < 0.1 | – | CCN(CC)C(=O)CCNC(=O)c1cc(NCc2ccc(F)cc2F)nc(-c2cncc(C(F)(F)F)c2)n1 [Compound 42, 6-(2,4-Difluoro-benzylamino)-2-(5-trifluoromethyl-pyridin-3-yl)-pyrimidine-4-carboxylic acid (2-diethylcarbamoyl-ethyl)-amide]
1 to 10 | < 0.1 | – | O=C(NCCC(=O)N1CCOCC1)c1cc(NCc2ccc(F)cc2F)nc(-c2cncc(C(F)(F)F)c2)n1 [Compound 43, 6-(2,4-Difluoro-benzylamino)-2-(5-trifluoromethyl-pyridin-3-yl)-pyrimidine-4-carboxylic acid (3-morpholin-4-yl-3-oxo-propyl)-amide]
1 to 10 | < 0.1 | – | CN1CCN(C(=O)CCNC(=O)c2cc(NCc3ccc(F)cc3F)nc(-c3cncc(C(F)(F)F)c3)n2)CC1 [Compound 44, 6-(2,4-Difluoro-benzylamino)-2-(5-trifluoromethyl-pyridin-3-yl)-pyrimidine-4-carboxylic acid [3-(4-methyl-piperazin-1-yl)-3-oxo-propyl]-amide]
1 to 10 | < 0.1 | – | CN(C)CCCNC(=O)c1cc(NCc2ccc(F)cc2F)nc(-c2cncc(C(F)(F)F)c2)n1 [Compound 45, 6-(2,4-Difluoro-benzylamino)-2-(5-trifluoromethyl-pyridin-3-yl)-pyrimidine-4-carboxylic acid (3-dimethylamino-propyl)-amide]
1 to 10 | < 0.1 | – | O=C(NCCCn1ccnc1)c1cc(NCc2ccc(F)cc2F)nc(-c2cncc(C(F)(F)F)c2)n1 [Compound 46, 6-(2,4-Difluoro-benzylamino)-2-(5-trifluoromethyl-pyridin-3-yl)-pyrimidine-4-carboxylic acid (3-imidazol-1-yl-propyl)-amide]
0.1 to 1 | < 0.1 | – | O=C(NCCCN1CCCC1=O)c1cc(NCc2ccc(F)cc2F)nc(-c2cncc(C(F)(F)F)c2)n1 [Compound 47, 6-(2,4-Difluoro-benzylamino)-2-(5-trifluoromethyl-pyridin-3-yl)-pyrimidine-4-carboxylic acid [3-(2-oxo-pyrrolidin-1-yl)-propyl]-amide]
> 10 | < 0.1 | – | O=C(NCCCN1CCOCC1)c1cc(NCc2ccc(F)cc2F)nc(-c2cncc(C(F)(F)F)c2)n1 [Compound 48, 6-(2,4-Difluoro-benzylamino)-2-(5-trifluoromethyl-pyridin-3-yl)-pyrimidine-4-carboxylic acid (3-morpholin-4-yl-propyl)-amide]
1 to 10 | < 0.1 | – | NC(=O)C1CCN(C(=O)c2cc(NCc3ccc(F)cc3F)nc(-c3cncc(C(F)(F)F)c3)n2)CC1 [Compound 49, 1-[6-(2,4-Difluoro-benzylamino)-2-(5-trifluoromethyl-pyridin-3-yl)-pyrimidine-4-carbonyl]-piperidine-4-carboxylic acid amide]
1 to 10 | < 0.1 | – | NC(=O)C1CCCN(C(=O)c2cc(NCc3ccc(F)cc3F)nc(-c3cncc(C(F)(F)F)c3)n2)C1 (centres unmarked) [Compound 50, 1-[6-(2,4-Difluoro-benzylamino)-2-(5-trifluoromethyl-pyridin-3-yl)-pyrimidine-4-carbonyl]-piperidine-3-carboxylic acid amide]
1 to 10 | < 0.1 | – | CN1CCC(CNC(=O)c2cc(NCc3ccc(F)cc3F)nc(-c3cncc(C(F)(F)F)c3)n2)C1 (centres unmarked) [Compound 51, 6-(2,4-Difluoro-benzylamino)-2-(5-trifluoromethyl-pyridin-3-yl)-pyrimidine-4-carboxylic acid (1-methyl-pyrrolidin-3-ylmethyl)-amide]
1 to 10 | < 0.1 | – | O=C(NCCc1c[nH]cn1)c1cc(NCc2ccc(F)cc2F)nc(-c2cncc(C(F)(F)F)c2)n1 [Compound 52, 6-(2,4-Difluoro-benzylamino)-2-(5-trifluoromethyl-pyridin-3-yl)-pyrimidine-4-carboxylic acid [2-(1H-imidazol-4-yl)-ethyl]-amide]
1 to 10 | < 0.1 | – | CN(C)CCCCNC(=O)c1cc(NCc2ccc(F)cc2F)nc(-c2cncc(C(F)(F)F)c2)n1 [Compound 53, 6-(2,4-Difluoro-benzylamino)-2-(5-trifluoromethyl-pyridin-3-yl)-pyrimidine-4-carboxylic acid (4-dimethylamino-butyl)-amide]
1 to 10 | < 0.1 | – | CN1CCC(NC(=O)c2cc(NCc3ccc(F)cc3F)nc(-c3cncc(C(F)(F)F)c3)n2)CC1 [Compound 54, 6-(2,4-Difluoro-benzylamino)-2-(5-trifluoromethyl-pyridin-3-yl)-pyrimidine-4-carboxylic acid (1-methyl-piperidin-4-yl)-amide]
1 to 10 | 0.1 to 1 | – | NC(=O)C1CCCN(c2cc(NCc3ccc(F)cc3F)nc(-c3cncc(C(F)(F)F)c3)n2)C1 (centres unmarked) [Compound 55, 1-[6-(2,4-Difluoro-benzylamino)-2-(5-trifluoromethyl-pyridin-3-yl)-pyrimidin-4-yl]-piperidine-3-carboxylic acid amide]
1 to 10 | 0.1 to 1 | – | Fc1ccc(CNc2cc(NCCCn3ccnc3)nc(-c3cncc(C(F)(F)F)c3)n2)c(F)c1 [Compound 56, N-(2,4-Difluoro-benzyl)-N′-(3-imidazol-1-yl-propyl)-2-(5-trifluoromethyl-pyridin-3-yl)-pyrimidine-4,6-diamine]
– | – | 1 to 10 | CNC(=O)C(Nc1ccnc(-c2cncc(C(F)(F)F)c2)n1)c1ccccc1 (centres unmarked) [Compound 268, N-Methyl-2-phenyl-2-[2-(5-trifluoromethyl-pyridin-3-yl)-pyrimidin-4-ylamino]-acetamide]
– | – | > 10 | CNC(=O)C(Nc1ccnc(-c2cncc(C(F)(F)F)c2)n1)c1ccc(O)cc1 (centres unmarked) [Compound 269, 2-(4-Hydroxy-phenyl)-N-methyl-2-[2-(5-trifluoromethyl-pyridin-3-yl)-pyrimidin-4-ylamino]-acetamide]
– | – | 0.1 to 1 | C[C@@H](Nc1ccnc(-c2cncc(C(F)(F)F)c2)n1)c1ccc(F)cc1 [Compound 270, [(R)-1-(4-Fluoro-phenyl)-ethyl]-[2-(5-trifluoromethyl-pyridin-3-yl)-pyrimidin-4-yl]-amine]
– | – | 0.1 to 1 | OC[C@H](Nc1ccnc(-c2cncc(C(F)(F)F)c2)n1)c1ccccc1 [Compound 271, (R)-2-Phenyl-2-[2-(5-trifluoromethyl-pyridin-3-yl)-pyrimidin-4-ylamino]-ethanol]
– | – | 0.1 to 1 | O=C(O)c1cc(NCc2ccc(F)cc2F)nc(-c2cncc(C(F)(F)F)c2)n1 [Compound 272, 6-(2,4-Difluoro-benzylamino)-2-(5-trifluoromethyl-pyridin-3-yl)-pyrimidine-4-carboxylic acid]
– | – | 0.1 to 1 | COC(=O)c1cc(NCc2ccc(F)cc2F)nc(-c2cncc(C(F)(F)F)c2)n1 [Compound 273, 6-(2,4-Difluoro-benzylamino)-2-(5-trifluoromethyl-pyridin-3-yl)-pyrimidine-4-carboxylic acid methyl ester]
